# Laboratory results taken from patent publication US5656726A, “Peptide inhibitors of urokinase receptor activity” (Chiron Corporation, priority 1995, dated 1997).
# Read-outs that look alike come from different tables or passages of the source. Ends that are not written are not given here. Peptide text beside a SMILES is read from it.
# Columns and labels:
# [1] = molecular target: T1, recombinant human urokinase receptor (truncated, soluble; suPAR) (Homo sapiens, UniProt Q03405); assay: 125I-ATF competition binding on immobilized soluble recombinant human urokinase receptor; conditions: synthesized peptide, read-out: Affinity
# T1 construct: expressed as a truncated, soluble molecule as described previously for mouse L-cells (Masucci et al., J Biol Chem (1991) 266:8655); made in house
# U937 cells = conditions: Rabbani et al.; cited from earlier work
# [2] = tested on: SaOS-2 osteosarcoma cell line; conditions: Rabbani et al.; cited from earlier work
# uPAR = uPAR (Homo sapiens, UniProt Q03405); conditions: Appella et al., cited from earlier work
# [3] = molecular target: T2, full length huPAR ("fluPAR") (Homo sapiens, UniProt Q03405); assay: Recovery of phage on Sf9 cells expressing full length huPAR; assay type: binding
# T2 construct: Sf9 cells expressing full length huPAR ("fluPAR", day 2 post infection); expressed in transfected cells; host or cells: Sf9 insect cells, infected (day 2 post infection)
# Experimental: 1.) 15 mer phage (2.5×10^10) prepared as described above were selected by coincubation with 10^6 Sf9 cells expressing full length huPAR ("fluPAR", day 2 post infection) at room temperature for 60 minutes in Grace's medium with 2% nonfat milk. Binding phage were eluted with 6M urea (pH 2.2), the pH neutralized by adding 2M Tris-HCl, and assayed. The yield of binding phage was 0.0013% (3.3×10^5 pfu). The phage were amplified on solid agar plates as plaques, eluted with Tris-buffered saline, and precipitated with polyethylene glycol.
# (§1) 3.) The phage selected in round 2 were reselected on SI9 cells expressing fluPAR (day 2 post-infection) as described for round 1 (2.8×10^10 phage on 10^6 St9 cells). The yield of binding phage from this round was 5.40% (1.5×10^9 pfu), indicating a substantial enrichment in binding phage. Sample phage from the urea eluate were cloned, and their DNAs isolated and sequenced. Binding was assayed against Sf9 cells expressing fluPAR, and Sf9 cells expressing substance P receptor ("SPR," as a control).
# [4] = molecular target: T3, substance P receptor ("SPR") (Homo sapiens, UniProt P25103); assay: Recovery of phage on Sf9 cells expressing substance P receptor (control); assay type: binding; conditions: phage displaying the peptide
# T3 construct: expressed in transfected cells; host or cells: Sf9 insect cells
# Experimental: as §1
# [5] = assay performed at 100 pM ATF, 0.3 μg/mL suPAR in 200 μL (starred values)
# [6] = corrected to 100 pM ATF, 0.3 μg/mL suPAR conditions, corrections about 3 × from previous assay conditions
# T1 sequence (Q03405 23-299 limits assumed): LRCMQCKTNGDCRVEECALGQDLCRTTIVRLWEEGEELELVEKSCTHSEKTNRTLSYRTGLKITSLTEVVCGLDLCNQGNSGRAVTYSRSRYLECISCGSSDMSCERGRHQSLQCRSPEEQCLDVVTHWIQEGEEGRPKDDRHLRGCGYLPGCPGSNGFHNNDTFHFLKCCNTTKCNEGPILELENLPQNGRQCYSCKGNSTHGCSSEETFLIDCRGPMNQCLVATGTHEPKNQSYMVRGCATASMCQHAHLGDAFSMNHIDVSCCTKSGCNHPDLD
# Sequence of uPAR (Q03405 23-335): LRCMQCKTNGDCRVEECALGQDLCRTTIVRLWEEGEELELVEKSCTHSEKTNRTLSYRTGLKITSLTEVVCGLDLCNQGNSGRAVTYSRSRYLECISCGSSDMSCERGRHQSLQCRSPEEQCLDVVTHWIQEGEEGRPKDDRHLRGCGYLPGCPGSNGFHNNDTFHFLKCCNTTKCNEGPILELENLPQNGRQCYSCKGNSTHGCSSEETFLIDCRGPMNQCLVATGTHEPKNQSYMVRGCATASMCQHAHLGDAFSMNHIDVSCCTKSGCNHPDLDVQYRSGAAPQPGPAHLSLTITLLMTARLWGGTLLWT
# T2 sequence (Q03405 23-335): as above
# T3 sequence (P25103 whole entry, species assumed): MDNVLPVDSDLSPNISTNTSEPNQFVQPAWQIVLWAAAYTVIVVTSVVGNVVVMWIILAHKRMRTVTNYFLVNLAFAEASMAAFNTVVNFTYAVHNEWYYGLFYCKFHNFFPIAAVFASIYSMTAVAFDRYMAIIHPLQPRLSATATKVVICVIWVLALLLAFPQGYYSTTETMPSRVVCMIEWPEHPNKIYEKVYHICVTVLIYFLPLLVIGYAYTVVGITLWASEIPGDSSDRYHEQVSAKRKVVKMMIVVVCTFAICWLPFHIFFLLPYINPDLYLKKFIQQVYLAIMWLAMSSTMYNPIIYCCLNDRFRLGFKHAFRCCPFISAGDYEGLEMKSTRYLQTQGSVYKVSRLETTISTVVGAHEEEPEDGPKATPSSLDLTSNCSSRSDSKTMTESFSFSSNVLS
"Kd [1, 5]","Kd [1, 6]",Molecule,also measured
25 µM,,CC[C@H](C)[C@H](NC(=O)[C@H](CCC(=O)O)NC(=O)[C@H](C)N)C(=O)N[C@@H](CCCCN)C(=O)N[C@H](C(=O)N[C@@H](CC(=O)O)C(=O)N[C@@H](CCC(=O)O)C(=O)N[C@@H](CCCCN)C(=O)N[C@@H](CCSC)C(=O)NCC(=O)N[C@@H](CC(C)C)C(=O)N[C@@H](Cc1c[nH]c2ccccc12)C(=O)N[C@@H](CC(=O)O)C(=O)N[C@@H](CC(C)C)C(=O)N[C@@H](Cc1ccc(O)cc1)C(=O)N[C@@H](CO)C(=O)N[C@@H](CCSC)C(N)=O)[C@@H](C)O (H-AEIKTDEKMGLWDLYSM-NH2),
0.015 µM,,CSCC[C@H](NC(=O)[C@@H]1CCCN1C(=O)[C@H](CCC(=O)O)NC(=O)[C@H](C)N)C(=O)N1CCC[C@H]1C(=O)N[C@@H](Cc1c[nH]cn1)C(=O)N[C@@H](CO)C(=O)N[C@@H](CC(C)C)C(=O)N[C@@H](CC(N)=O)C(=O)N[C@@H](Cc1ccccc1)C(=O)N[C@@H](CO)C(=O)N[C@@H](CCC(N)=O)C(=O)N[C@@H](Cc1ccc(O)cc1)C(=O)N[C@@H](CC(C)C)C(=O)N[C@@H](Cc1c[nH]c2ccccc12)C(=O)N[C@@H](Cc1ccc(O)cc1)C(=O)N[C@H](C(N)=O)[C@@H](C)O (H-AEPMPHSLNFSQYLWYT-NH2),
,10 µM,CC[C@H](C)[C@H](NC(=O)[C@H](Cc1c[nH]c2ccccc12)NC(=O)[C@H](CCC(=O)O)NC(=O)[C@H](C)N)C(=O)N[C@H](C(=O)N[C@@H](CO)C(=O)N[C@@H](CO)C(=O)N1CCC[C@H]1C(=O)N1CCC[C@H]1C(=O)N[C@@H](CC(C)C)C(=O)N[C@H](C(=O)N[C@@H](CCC(N)=O)C(=O)N[C@@H](Cc1ccc(O)cc1)C(=O)N[C@@H](CC(C)C)C(=O)N[C@@H](Cc1c[nH]c2ccccc12)C(=O)NCC(=O)N[C@@H](Cc1ccccc1)C(N)=O)[C@@H](C)O)[C@@H](C)O (H-AEWITSSPPLTQYLWGF-NH2),
,> 50 µM,CC(C)C[C@H](NC(=O)[C@H](CO)NC(=O)[C@H](CC(C)C)NC(=O)[C@@H]1CCCN1C(=O)[C@H](CCC(=O)O)NC(=O)[C@H](C)N)C(=O)N[C@@H](Cc1ccc(O)cc1)C(=O)N[C@@H](CCC(N)=O)C(=O)N[C@@H](CCCCN)C(=O)N[C@@H](CCCCN)C(=O)N[C@H](C(=O)N[C@@H](CC(C)C)C(=O)N[C@@H](CCCNC(=N)N)C(=O)N[C@@H](Cc1c[nH]cn1)C(=O)N[C@@H](Cc1ccccc1)C(=O)N[C@@H](C)C(=O)N[C@@H](CC(N)=O)C(N)=O)[C@@H](C)O (H-AEPLSLYQKKTLRHFAN-NH2),

# The next lines start with the molecule.
Molecule,"Kd [1, 5]","Kd [1, 6]",also measured
CSCC[C@H](NC(=O)[C@@H](NC(=O)[C@H](CC(N)=O)NC(=O)[C@H](CO)NC(=O)[C@H](CC(C)C)NC(=O)[C@H](Cc1ccccc1)NC(=O)[C@H](Cc1c[nH]c2ccccc12)NC(=O)[C@H](C)NC(=O)[C@H](CCC(=O)O)NC(=O)[C@H](C)N)[C@@H](C)O)C(=O)N[C@@H](CCCCN)C(=O)N[C@@H](C)C(=O)N[C@@H](CC(C)C)C(=O)N[C@@H](CO)C(=O)N[C@@H](C)C(=O)N[C@@H](CCCNC(=N)N)C(=O)N[C@@H](CC(C)C)C(N)=O (H-AEAWFLSNTMKALSARL-NH2),,4 µM,
CC(C)C[C@H](NC(=O)[C@H](CCCNC(=N)N)NC(=O)[C@H](CC(C)C)NC(=O)[C@@H]1CCCN1C(=O)[C@H](Cc1ccccc1)NC(=O)[C@H](CCC(N)=O)NC(=O)[C@H](Cc1ccc(O)cc1)NC(=O)[C@H](CC(C)C)NC(=O)[C@H](CCC(N)=O)NC(=O)[C@H](Cc1c[nH]c2ccccc12)NC(=O)[C@H](CC(C)C)NC(=O)[C@@H](NC(=O)[C@@H]1CCCN1C(=O)[C@H](CCC(=O)O)NC(=O)[C@H](C)N)[C@@H](C)O)C(=O)N[C@@H](CO)C(=O)NCC(N)=O (H-AEPTLWQLYQFPLRLSG-NH2),,5 µM,
"fucosylated EGF-like domain: fucosylated EGF-like domain (uPA4-43, produced by cleavage from pro-uPA) (LHQVPSNCDCLNGGT(fucose)CVSNKYFSNIHWCNCPKKFGGQHCE; not fully specified; cysteine pairing not given here; UniProt P00749 24-63, looked up, fragment)",,,mitogenic activity (U937 cells): Neither fucosylated nor non-fucosylated EGF-like domain was mitogenic; mitogenic activity [2]: mitogenic
CSCC[C@H](NC(=O)[C@H](CO)NC(=O)[C@@H]1CCCN1C(=O)[C@H](Cc1c[nH]c2ccccc12)NC(=O)[C@H](C)NC(=O)[C@H](Cc1ccc(O)cc1)NC(=O)[C@H](CCCNC(=N)N)NC(=O)[C@@H](NC(=O)[C@H](Cc1c[nH]c2ccccc12)NC(=O)[C@H](CC(C)C)NC(=O)[C@H](CO)NC(=O)[C@H](CO)NC(=O)[C@H](CCC(=O)O)NC(=O)[C@H](C)N)[C@@H](C)O)C(=O)N1CCC[C@H]1C(=O)N[C@@H](CO)C(=O)N[C@@H](Cc1ccc(O)cc1)C(N)=O (H-AESSLWTRYAWPSMPSY-NH2),,0.35 µM,
CSCC[C@H](NC(=O)[C@H](Cc1c[nH]c2ccccc12)NC(=O)[C@H](CC(C)C)NC(=O)[C@H](CC(=O)O)NC(=O)[C@H](CC(C)C)NC(=O)[C@H](CCC(=O)O)NC(=O)[C@H](C)N)C(=O)N[C@@H](CCCNC(=N)N)C(=O)N[C@@H](Cc1c[nH]cn1)C(=O)N[C@@H](Cc1ccc(O)cc1)C(=O)N1CCC[C@H]1C(=O)N[C@@H](CC(C)C)C(=O)N[C@@H](CO)C(=O)N[C@@H](Cc1ccccc1)C(=O)N[C@@H](CO)C(=O)N[C@@H](CC(N)=O)C(=O)N[C@@H](CCCNC(=N)N)C(N)=O (H-AELDLWMRHYPLSFSNR-NH2),0.8 µM,,
CC[C@H](C)[C@H](NC(=O)[C@H](Cc1c[nH]c2ccccc12)NC(=O)[C@H](CC(C)C)NC(=O)[C@H](CC(=O)O)NC(=O)[C@H](C)NC(=O)[C@H](CCC(=O)O)NC(=O)[C@H](CO)NC(=O)[C@H](CC(C)C)NC(=O)[C@H](CCC(=O)O)NC(=O)[C@H](C)N)C(=O)N[C@H](C(=O)N[C@@H](Cc1c[nH]c2ccccc12)C(=O)N[C@@H](Cc1ccccc1)C(=O)NCC(=O)N[C@@H](CCSC)C(=O)NCC(=O)N[C@@H](CO)C(N)=O)[C@@H](C)O (H-AELSEADLWITWFGMGS-NH2),20 µM,,
"uPA12-32: critical domain alone, residues 12-32 of the EGF-like domain of uPA (DCLNGGTCVSNKYFSNIHWCN; UniProt P00749 32-52, looked up, fragment)",,,"Kd (uPAR; J. Biol Chem (1987), read-out: affinity for uPAR): 0.04 µM; affinity relative to intact ATF (fold less) (uPAR): about 100 fold"
"AECLNGGTAVSNKYFSNIHWCN [Positive control, residues 13-32 of the EGFlike domain of urokinase (not selected from library)]",,,"% Recovery huPAR ([3]; phage displaying the peptide, Sf9 cells expressing fluPAR): 6.8%; Specificity (uPAR/SPR) ([3]; ratio of % recovery huPAR to SPR): 857; % Recovery SPR [4]: 0.008%"
